Test results: a melting point compilation (Tetko et al.; mined from patent text by program, amines drawn as free bases though some values may be those of a salt)

Row | melting point | Structure (SMILES)
1 | 228 to 230 °C | Cc1ccc2ncc(Oc3c(Cl)cc(NS(=O)(=O)c4cc(C)c(Cl)cc4Cl)cc3Cl)cc2c1
2 | 127 to 128 °C | Cc1cccc(C)c1NCCNCC(O)COc1cccc2[nH]ncc12 (configuration not stated)
3 | 135 to 138 °C | CCc1nnc2c(N(CC)CC)nc3ccc(OC)cc3n12
4 | 98 to 102 °C | COC(=O)C1=C(N)C(CCCCC(=O)O)SC1 (configuration not stated)
5 | 206 to 209 °C | CCC(CC)Oc1cc(C)nc2c1COCN2c1c(C)cc(Br)cc1C
6 | 135 to 139 °C | CCOC(=O)c1c(CCc2ccc(OC)cc2)oc2ccc(C#N)cc12
7 | 182 to 183 °C | CCOC(=O)C(=O)Nc1ccc(Cl)c(C#N)c1
8 | 235 to 237 °C | C=C(Br)c1cc(O)cc2nc(-c3ccc(O)cc3F)oc12
9 | 87 to 88 °C | OCc1cc(OCc2ccccc2)nn1-c1ccccc1
10 | 124 to 125 °C | COc1ccc(Cn2c(=O)c3ccccc3n(CCCCl)c2=O)cc1
11 | 165 to 167 °C | COC(=O)c1ccc2sc(/C=C/c3cccc(N)c3)nc2c1
12 | 97 to 99 °C | CSC1=Nc2ccccc2C2=NCC(Cn3ccnc3)N12 (configuration not stated)
13 | 142 to 145 °C | CC(=O)NC[C@H]1CN(c2ccc3c(c2)CCOC3)C(=O)O1
14 | > 280 °C | Nc1nc2c([nH]c(=S)n2Cc2cccs2)c(=O)[nH]1
15 | 49 to 50 °C | Cc1cccc(CCCCCCCCC(=O)NO)c1
16 | 190 to 194 °C | CC(C)CC(NC(=O)c1ccc2c(N)cccc2n1)C(=O)NCC#N (configuration not stated)
17 | 104 °C | COc1cc(CO)ccc1NC(C)=O
18 | 48 to 50 °C | CCOC(=O)CC(=O)c1ccc([N+](=O)[O-])c(C)c1
19 | 161 to 164 °C | Cc1cc(-c2nncc3c(C(C)(C)C)c(OCc4ncn(C)n4)nn23)no1
20 | 212 to 215 °C | O=C(O)[C@H](Cc1c[nH]c2ccccc12)NC(=O)C1(NC(=O)[C@@H](S)C2CCOCC2)CCCC1
21 | 59 to 61 °C | COC(=O)[C@H]1NC(=O)[C@H]1N (relative stereo)

Row | melting point | Structure (SMILES)
22 | 190 to 191 °C | O=c1[nH]ncc2[nH]c(-c3ccc(OC(F)F)c(OC4CC4)c3)c(CO)c12
23 | 142 to 146 °C | O=C(O)C(=O)CC(=O)c1cccn1Cc1cc(F)ccc1F
24 | 110 to 112 °C | Cc1ccc(-c2ccc(S(C)(=O)=O)cc2)n1-c1ccc(F)cc1
25 | 68 to 70 °C | Cn1cc(C(=O)Cl)c([N+](=O)[O-])n1
26 | 89 to 89.5 °C | CCN(CC)C(=O)COC(=O)C(C)c1ccc2cc(OC)ccc2c1 (configuration not stated)
27 | < 65 °C | CC(=O)OCC1OC(n2c(Br)nc3cc(Cl)c(Cl)cc32)C(OC(C)=O)C1OC(C)=O (configuration not stated)
28 | 183 to 184 °C | COC(=O)Nc1ccc(-c2ncn(-c3ccc(OC(F)(F)C(F)(F)F)cc3)n2)cc1
29 | 201 °C | NCC1CC(CCC(=O)O)=NO1 (configuration not stated)
30 | 228 to 229 °C | O=C(O)Cc1csc(-c2cc3cccc(NS(=O)(=O)c4cccs4)c3[nH]2)n1
31 | > 250 °C | CCNC(=NC#N)NCC(=O)N(C)c1ccc(Cl)c(COc2cccn3c(Br)c(C)nc23)c1Cl
32 | 118 to 120 °C | CC(C)c1nccn1S(=O)(=O)c1c[nH]cn1
33 | 216 to 217 °C | COc1ccc(COC(=O)C2N3C(=O)C(N4C(=O)c5ccccc5C4=O)C3SCC2(C)O)cc1 (configuration not stated)
34 | 144 to 145 °C | CNC(=O)N1CC(Oc2ccc(Cl)cc2)C1
35 | 73 to 74 °C | CC/C(=C\CCC(O)(CC)CC)c1csc(COc2ccc(CO)c(CO)c2)c1
36 | 74 to 76 °C | O=C(c1cccs1)c1cnn2c(-c3ccc(F)c(Br)c3)ccnc12
37 | 152 to 154 °C | CCOC(=O)N1CCN(C2=C(Cl)C(=O)c3nsnc3C2=O)CC1
38 | 85 to 87 °C | O=C(O)c1cc(OCCCCCCCCCCCCOc2ccccc2)ccc1OCc1ccccc1
39 | 222 to 223 °C | CCCCCCOc1c2c(c(-c3ccc4c(c3)OCO4)c3c4c(ccc13)OCO4)C(=O)NC2=O
40 | 133 to 134 °C | O=C1Nc2ccccc2SC1CCCl (configuration not stated)
41 | 177 °C | C=C(COCC(=C)C(=O)O)C(=O)O

Row | Structure (SMILES) | melting point
42 | Brc1ccc(CC2=NCCN2)c2ccccc12 | 133 to 135 °C
